# Reference: PubChem BioAssay (NCI)
#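 Five compound concentrations were applied to cells in 96-well plates for 48 hours; endpoints were derived by simple linear interpolation of the resulting dose-response curve. Here, GI50 denotes the concentration required for 50% inhibition of growth. At the TGI there is no net growth.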
# Experiments:
# Experiment in all cases: DTP human tumour cell line panel, 48 h
# [1] = tested on: 786-0 renal
# [2] = tested on: M14 melanoma
# [3] = tested on: SK-MEL-28 melanoma
# [4] = tested on: A549 NSCLC
# [5] = tested on: SW-620 colon
# [6] = tested on: SK-OV-3 ovarian
# [7] = tested on: UO-31 renal
# [8] = tested on: MDA-MB-435
# [9] = tested on: MCF7 breast
# [10] = tested on: NCI-H460 lung
# [11] = tested on: COLO 205 colon
# [12] = tested on: CCRF-CEM leukemia
# [13] = tested on: CAKI-1 renal
# [14] = tested on: RPMI-8226 leukemia
# [15] = tested on: MALME-3M melanoma
# [16] = tested on: DU-145 prostate
# [17] = tested on: NCI/ADR-RES ovarian
# [18] = tested on: MDA-MB-231 breast
# [19] = tested on: NCI-H522 lung
# [20] = tested on: SNB-75 CNS
# [21] = tested on: OVCAR-8 ovarian
# [22] = tested on: SNB-19 CNS
# [23] = tested on: IGROV1 ovarian
# [24] = tested on: SN12C renal
# [25] = tested on: PC-3 prostate
# [26] = tested on: BT-549 breast
# [27] = tested on: OVCAR-5 ovarian
# [28] = tested on: SF-539 CNS
# [29] = tested on: HCC-2998 colon
# [30] = tested on: RXF 393 renal
# [31] = tested on: NCI-H226 lung
# [32] = tested on: OVCAR-3 ovarian
# [33] = tested on: A498 renal
# [34] = tested on: HOP-92 NSCLC
# [35] = tested on: UACC-62 melanoma
# [36] = tested on: MOLT-4 leukemia
# [37] = tested on: KM12 colon
# [38] = tested on: TK-10 renal
# [39] = tested on: SF-295 CNS
# [40] = tested on: U251 CNS
# [41] = tested on: HL-60(TB) leukemia
# [42] = tested on: K-562 leukemia
# [43] = tested on: ACHN renal
# [44] = tested on: OVCAR-4 ovarian
# [45] = tested on: SR leukemia
# [46] = tested on: HS 578T breast
# [47] = tested on: LOX IMVI melanoma
# [48] = tested on: HCT-116 colon
# [49] = tested on: EKVX NSCLC
# [50] = tested on: HOP-62 NSCLC
# [51] = tested on: SF-268 CNS
# [52] = tested on: UACC-257 melanoma
# [53] = tested on: HCT-15 colon
# [54] = tested on: T-47D breast
# [55] = tested on: SK-MEL-5 melanoma
# [56] = tested on: HT29 colon
# [57] = tested on: SK-MEL-2 melanoma
# [58] = tested on: NCI-H23 lung
smiles,measurement,setting,value
CC(=O)N(O)CCCCCNC(=O)CCC(=O)N(O)CCCCCNC(=O)CCC(=O)N(O)CCCCCN(CCCCCCCCCC[P+](c1ccccc1)(c1ccccc1)c1ccccc1)CCCCCCCCCC[P+](c1ccccc1)(c1ccccc1)c1ccccc1,GI50,[1],7.1 µM
same,TGI,[1],26.6 µM
same,GI50,[2],4.11 µM
same,TGI,[2],21.9 µM
same,GI50,[3],3.62 µM
same,TGI,[3],18.3 µM
same,GI50,[4],3.47 µM
same,TGI,[4],> 100 µM
same,GI50,[5],4.18 µM
same,TGI,[5],16.5 µM
same,GI50,[6],2.3 µM
same,TGI,[6],6.15 µM
same,GI50,[7],16 µM
same,TGI,[7],> 100 µM
same,GI50,[8],2.76 µM
same,TGI,[8],11.3 µM
same,GI50,[9],2.29 µM
same,TGI,[9],10.8 µM
same,GI50,[10],2.38 µM
same,TGI,[10],11.5 µM
same,GI50,[11],1.58 µM
same,TGI,[11],3.55 µM
same,GI50,[12],2.5 µM
same,TGI,[12],23.4 µM
same,GI50,[13],10.8 µM
same,TGI,[13],24.4 µM
same,GI50,[14],2.12 µM
same,TGI,[14],9.63 µM
same,GI50,[15],4.11 µM
same,TGI,[15],20.3 µM
same,GI50,[16],5.21 µM
same,TGI,[16],25.4 µM
same,GI50,[17],31.3 µM
same,TGI,[17],> 100 µM
same,GI50,[18],4.13 µM
same,TGI,[18],19.6 µM
same,GI50,[19],2.52 µM
same,TGI,[19],10.7 µM
same,GI50,[20],2.69 µM
same,TGI,[20],11.4 µM
same,GI50,[21],3.07 µM
same,TGI,[21],14.8 µM
same,GI50,[22],3.09 µM
same,TGI,[22],14.1 µM
same,GI50,[23],2.83 µM
same,TGI,[23],16.8 µM
same,GI50,[24],2.88 µM
same,TGI,[24],11.1 µM
same,GI50,[25],2.95 µM
same,TGI,[25],13.4 µM
same,GI50,[26],2.15 µM
same,TGI,[26],9 µM
same,GI50,[27],3.46 µM
same,TGI,[27],15.5 µM
same,GI50,[28],2.8 µM
same,TGI,[28],10.4 µM
same,GI50,[29],3.45 µM
same,TGI,[29],13.9 µM
same,GI50,[30],3.3 µM
same,TGI,[30],14.5 µM
same,GI50,[31],5.02 µM
same,TGI,[31],23.9 µM
same,GI50,[32],4.22 µM
same,TGI,[32],23.2 µM
same,GI50,[33],18.9 µM
same,TGI,[33],81.2 µM
same,GI50,[34],1.49 µM
same,TGI,[34],6.82 µM
same,GI50,[35],3.35 µM
same,TGI,[35],15.3 µM
same,GI50,[36],3.52 µM
same,TGI,[36],18.9 µM
same,GI50,[37],3.43 µM
same,TGI,[37],21.1 µM
same,GI50,[38],9 µM
same,TGI,[38],34.2 µM
same,GI50,[39],2.99 µM
same,TGI,[39],14.1 µM
same,GI50,[40],2 µM
same,TGI,[40],13 µM
same,GI50,[41],2.04 µM
same,TGI,[41],6.01 µM
same,GI50,[42],1.47 µM
same,TGI,[42],15.4 µM
same,GI50,[43],16.1 µM
same,TGI,[43],69.9 µM
same,GI50,[44],2.73 µM
same,TGI,[44],17.5 µM
same,GI50,[45],2.71 µM
same,TGI,[45],11.2 µM
same,GI50,[46],3.77 µM
same,TGI,[46],30.8 µM
same,GI50,[47],3.21 µM
same,TGI,[47],10.2 µM
same,GI50,[48],2.93 µM
same,TGI,[48],23.8 µM
same,GI50,[49],1.35 µM
same,TGI,[49],13 µM
same,GI50,[50],3.46 µM
same,TGI,[50],16.1 µM
same,GI50,[51],4.6 µM
same,TGI,[51],26.4 µM
same,GI50,[52],2.66 µM
same,TGI,[52],10 µM
same,GI50,[53],14.6 µM
same,TGI,[53],43.9 µM
same,GI50,[54],1.78 µM
same,TGI,[54],8.85 µM
same,GI50,[55],3.65 µM
same,TGI,[55],15.8 µM
same,GI50,[56],2.84 µM
same,TGI,[56],11.4 µM
same,GI50,[57],2.61 µM
same,TGI,[57],7.86 µM
COc1ccc2c(c1)c(CC(=O)[Se]CC#N)c(C)n2C(=O)c1ccc(Cl)cc1,GI50,[1],1.88 µM
same,TGI,[1],3.61 µM
same,GI50,[2],1.43 µM
same,TGI,[2],3.02 µM
same,GI50,[3],2.38 µM
same,TGI,[3],6.92 µM
same,GI50,[5],1.73 µM
same,TGI,[5],3.99 µM
same,GI50,[6],2.77 µM
same,TGI,[6],8.16 µM
same,GI50,[7],1.18 µM
same,TGI,[7],3.94 µM
same,GI50,[8],1.79 µM
same,TGI,[8],3.44 µM
same,GI50,[9],2.02 µM
same,TGI,[9],4.9 µM
same,GI50,[10],1.97 µM
same,TGI,[10],5.47 µM
same,GI50,[11],1.59 µM
same,TGI,[11],3.1 µM
same,GI50,[12],2.6 µM
same,TGI,[12],> 100 µM
same,GI50,[13],1.78 µM
same,TGI,[13],3.53 µM
same,GI50,[14],3.04 µM
same,TGI,[14],10.6 µM
same,GI50,[15],1.94 µM
same,TGI,[15],5.21 µM
same,GI50,[16],1.79 µM
same,TGI,[16],3.48 µM
same,GI50,[17],2.42 µM
same,TGI,[17],6.97 µM
same,GI50,[18],2.2 µM
same,TGI,[18],6.6 µM
same,GI50,[19],2.07 µM
same,TGI,[19],4.52 µM
same,GI50,[20],1.91 µM
same,TGI,[20],5.75 µM
same,GI50,[21],1.86 µM
same,TGI,[21],3.86 µM
same,GI50,[22],3.81 µM
same,TGI,[22],14.6 µM
same,GI50,[23],1.7 µM
same,TGI,[23],3.82 µM
same,GI50,[24],3.62 µM
same,TGI,[24],12.7 µM
same,GI50,[25],2.26 µM
same,TGI,[25],7.88 µM
same,GI50,[26],2.05 µM
same,TGI,[26],4.68 µM
same,GI50,[27],1.92 µM
same,TGI,[27],4.03 µM
same,GI50,[28],2.04 µM
same,TGI,[28],4.43 µM
same,GI50,[29],1.79 µM
same,TGI,[29],3.5 µM
same,GI50,[30],1.65 µM
same,TGI,[30],3.37 µM
same,GI50,[33],2.04 µM
same,TGI,[33],4.75 µM
same,GI50,[34],1.75 µM
same,TGI,[34],4.7 µM
same,GI50,[35],2.16 µM
same,TGI,[35],5.56 µM
same,GI50,[36],3.37 µM
same,TGI,[36],> 100 µM
same,GI50,[37],1.46 µM
same,TGI,[37],3.16 µM
same,GI50,[38],2.66 µM
same,TGI,[38],7.09 µM
same,GI50,[39],1.72 µM
same,TGI,[39],4.2 µM
same,GI50,[40],2.29 µM
same,TGI,[40],6.35 µM
same,GI50,[41],2.95 µM
same,TGI,[41],> 100 µM
same,GI50,[42],3.17 µM
same,TGI,[42],> 100 µM
same,GI50,[43],2.11 µM
same,TGI,[43],5.61 µM
same,GI50,[58],2.36 µM
same,TGI,[58],6.19 µM
same,GI50,[44],2.18 µM
same,TGI,[44],5.82 µM
same,GI50,[45],2.27 µM
same,TGI,[45],> 100 µM
same,GI50,[46],2.62 µM
same,TGI,[46],8.91 µM
same,GI50,[47],1.91 µM
same,TGI,[47],4.12 µM
same,GI50,[48],0.359 µM
same,TGI,[48],1.27 µM
same,GI50,[49],1.42 µM
same,TGI,[49],3.45 µM
same,GI50,[50],1.11 µM
same,TGI,[50],3.2 µM
same,GI50,[51],2.28 µM
same,TGI,[51],5.43 µM
same,GI50,[52],2.1 µM
same,TGI,[52],5.19 µM
same,GI50,[53],1.2 µM
same,TGI,[53],3 µM
same,GI50,[54],2.29 µM
same,TGI,[54],6.15 µM
same,GI50,[55],1.78 µM
same,TGI,[55],3.23 µM
same,GI50,[56],2.01 µM
same,TGI,[56],5.03 µM
same,GI50,[57],1.99 µM
same,TGI,[57],4.5 µM
